Test results published in patent US9738634B2, “Heterocyclic amide compound and herbicide” (SYNGENTA PARTICIPATIONS AG, priority 2013, dated 2017).

Tests used:
Type in all cases: in vivo
Settings in all cases: treatment dosage 320 g/ha
barnyard grass [1] = experiment: Test Example 1: weedkilling efficacy, preemergent weed treatment in the submerged state; A: barnyard grass
Procedure, shortened: (§1)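 Pre-emergence paddy test: weed seeds sown in submerged alluvial soil (4 cm water), 2.5-leaf rice transplanted, water-diluted emulsion applied to water surface at sowing at stated g/ha. Scored at 3 weeks, greenhouse 25–30 °C.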

bulrush [2] = experiment: Test Example 1: weedkilling efficacy, preemergent weed treatment in the submerged state; B: bulrush
Procedure, shortened: as §1

oval-leafed pondweed [3] = experiment: Test Example 1: weedkilling efficacy, preemergent weed treatment in the submerged state; C: oval-leafed pondweed
Procedure, shortened: as §1

transplanted rice = experiment: Test Example 1: preemergent weed treatment in the submerged state, effect on crop; a: transplanted rice
Procedure, shortened: as §1

barnyard grass [4] = experiment: Test Example 2: weedkilling efficacy, growth period weed treatment in the submerged state; A: barnyard grass
Procedure, shortened: (§2)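 Seedlings at 1-2 leaves in 4 cm-deep submerged alluvial soil received emulsion formulations on the water surface, dosed per hectare; effects were judged 3 weeks on.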

bulrush [5] = experiment: Test Example 2: weedkilling efficacy, growth period weed treatment in the submerged state; B: bulrush
Procedure, shortened: as §2

oval-leafed pondweed [6] = experiment: Test Example 2: weedkilling efficacy, growth period weed treatment in the submerged state; C: oval-leafed pondweed
Procedure, shortened: as §2

crabgrass [7] = experiment: Test Example 3: weedkilling efficacy through soil treatment; D: crabgrass
Procedure, shortened: (§3)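 Crop and weed responses were judged three weeks after a uniform surface spray of the water-diluted emulsion at the given g/ha rate. Seeds sat beneath about 1.5 cm of sterilized diluvial soil, and boxes stood in a greenhouse at 25 to 30° C.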

green foxtail [8] = experiment: Test Example 3: weedkilling efficacy through soil treatment; E: green foxtail
Procedure, shortened: as §3

barnyard grass [9] = experiment: Test Example 3: weedkilling efficacy through soil treatment; F: barnyard grass
Procedure, shortened: as §3

wild oat [10] = experiment: Test Example 3: weedkilling efficacy through soil treatment; G: wild oat
Procedure, shortened: as §3

black-grass [11] = experiment: Test Example 3: weedkilling efficacy through soil treatment; H: black-grass
Procedure, shortened: as §3

Italian ryegrass [12] = experiment: Test Example 3: weedkilling efficacy through soil treatment; I: Italian ryegrass
Procedure, shortened: as §3

common wind-grass [13] = experiment: Test Example 3: weedkilling efficacy through soil treatment; J: common wind-grass
Procedure, shortened: as §3

Indian mallow [14] = experiment: Test Example 3: weedkilling efficacy through soil treatment; K: Indian mallow
Procedure, shortened: as §3

redroot pigweed [15] = experiment: Test Example 3: weedkilling efficacy through soil treatment; L: redroot pigweed
Procedure, shortened: as §3

fig-leafed goosefoot = experiment: Test Example 3: weedkilling efficacy through soil treatment; M: fig-leafed goosefoot
Procedure, shortened: as §3

chickweed [16] = experiment: Test Example 3: weedkilling efficacy through soil treatment; N: chickweed
Procedure, shortened: as §3

catchweed [17] = experiment: Test Example 3: weedkilling efficacy through soil treatment; O: catchweed
Procedure, shortened: as §3

birds-eye speedwell [18] = experiment: Test Example 3: weedkilling efficacy through soil treatment; p: birds-eye speedwell
Procedure, shortened: as §3

directly sown rice [19] = experiment: Test Example 3: soil treatment, effect on crop; b: directly sown rice
Procedure, shortened: as §3

corn [20] = experiment: Test Example 3: soil treatment, effect on crop; c: corn
Procedure, shortened: as §3

soybean [21] = experiment: Test Example 3: soil treatment, effect on crop; d: soybean
Procedure, shortened: as §3

wheat [22] = experiment: Test Example 3: soil treatment, effect on crop; e: wheat
Procedure, shortened: as §3

beet [23] = experiment: Test Example 3: soil treatment, effect on crop; f: beet
Procedure, shortened: as §3

rapeseed [24] = experiment: Test Example 3: soil treatment, effect on crop; g: rapeseed
Procedure, shortened: as §3

crabgrass [25] = experiment: Test Example 4: weedkilling efficacy by foliar treatment; D: crabgrass
Procedure, shortened: (§4)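 Seeds are spot-sown into sterilized diluvial soil and covered with about 1.5 cm of soil. After 14 days' greenhouse growth at 25 to 30° C, plants are sprayed on stems and leaves with diluted emulsion at the stated g/ha rate, then scored at 3 weeks.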

green foxtail [26] = experiment: Test Example 4: weedkilling efficacy by foliar treatment; E: green foxtail
Procedure, shortened: as §4

barnyard grass [27] = experiment: Test Example 4: weedkilling efficacy by foliar treatment; F: barnyard grass
Procedure, shortened: as §4

wild oat [28] = experiment: Test Example 4: weedkilling efficacy by foliar treatment; G: wild oat
Procedure, shortened: as §4

black-grass [29] = experiment: Test Example 4: weedkilling efficacy by foliar treatment; H: black-grass
Procedure, shortened: as §4

Italian ryegrass [30] = experiment: Test Example 4: weedkilling efficacy by foliar treatment; I: Italian ryegrass
Procedure, shortened: as §4

common wind-grass [31] = experiment: Test Example 4: weedkilling efficacy by foliar treatment; J: common wind-grass
Procedure, shortened: as §4

Indian mallow [32] = experiment: Test Example 4: weedkilling efficacy by foliar treatment; K: Indian mallow
Procedure, shortened: as §4

redroot pigweed [33] = experiment: Test Example 4: weedkilling efficacy by foliar treatment; L: redroot pigweed
Procedure, shortened: as §4

chickweed [34] = experiment: Test Example 4: weedkilling efficacy by foliar treatment; N: chickweed
Procedure, shortened: as §4

catchweed [35] = experiment: Test Example 4: weedkilling efficacy by foliar treatment; O: catchweed
Procedure, shortened: as §4

birds-eye speedwell [36] = experiment: Test Example 4: weedkilling efficacy by foliar treatment; p: birds-eye speedwell
Procedure, shortened: as §4

directly sown rice [37] = experiment: Test Example 4: foliar treatment, effect on crop; b: directly sown rice
Procedure, shortened: as §4

corn [38] = experiment: Test Example 4: foliar treatment, effect on crop; c: corn
Procedure, shortened: as §4

soybean [39] = experiment: Test Example 4: foliar treatment, effect on crop; d: soybean
Procedure, shortened: as §4

wheat [40] = experiment: Test Example 4: foliar treatment, effect on crop; e: wheat
Procedure, shortened: as §4

beet [41] = experiment: Test Example 4: foliar treatment, effect on crop; f: beet
Procedure, shortened: as §4

rapeseed [42] = experiment: Test Example 4: foliar treatment, effect on crop; g: rapeseed
Procedure, shortened: as §4

Structure (SMILES): COc1cc(Cl)cc(NC(=O)C(C)(C)N2COC(C)=C(c3ccccc3)C2=O)n1 [B-2-46]
- A (barnyard grass) weedkilling efficacy grade (barnyard grass [1]): 5 (weed kill ratio 90% or more, (practically complete withering))
- B (bulrush) weedkilling efficacy grade (bulrush [2]): 5 (weed kill ratio 90% or more, (practically complete withering))
- C (oval-leafed pondweed) weedkilling efficacy grade (oval-leafed pondweed [3]): 5 (weed kill ratio 90% or more, (practically complete withering))
- a (transplanted rice) effect on crop grade (transplanted rice): 0 (weed kill ratio 5% or less (practically no effect))
- A (barnyard grass) weedkilling efficacy grade (barnyard grass [4]): 5 (weed kill ratio 90% or more, (practically complete withering))
- B (bulrush) weedkilling efficacy grade (bulrush [5]): 5 (weed kill ratio 90% or more, (practically complete withering))
- C (oval-leafed pondweed) weedkilling efficacy grade (oval-leafed pondweed [6]): 5 (weed kill ratio 90% or more, (practically complete withering))
- D (crabgrass) weedkilling efficacy grade (crabgrass [7]): 5 (weed kill ratio 90% or more, (practically complete withering))
- E (green foxtail) weedkilling efficacy grade (green foxtail [8]): 5 (weed kill ratio 90% or more, (practically complete withering))
- F (barnyard grass) weedkilling efficacy grade (barnyard grass [9]): 5 (weed kill ratio 90% or more, (practically complete withering))
- G (wild oat) weedkilling efficacy grade (wild oat [10]): 3 (weed kill ratio 40% or more, less than 70%)
- H (black-grass) weedkilling efficacy grade (black-grass [11]): 5 (weed kill ratio 90% or more, (practically complete withering))
- I (Italian ryegrass) weedkilling efficacy grade (Italian ryegrass [12]): 5 (weed kill ratio 90% or more, (practically complete withering))
- J (common wind-grass) weedkilling efficacy grade (common wind-grass [13]): 5 (weed kill ratio 90% or more, (practically complete withering))
- K (Indian mallow) weedkilling efficacy grade (Indian mallow [14]): 3 (weed kill ratio 40% or more, less than 70%)
- L (redroot pigweed) weedkilling efficacy grade (redroot pigweed [15]): 4 (weed kill ratio 70% or more, less than 90%)
- M (fig-leafed goosefoot) weedkilling efficacy grade (fig-leafed goosefoot): 4 (weed kill ratio 70% or more, less than 90%)
- N (chickweed) weedkilling efficacy grade (chickweed [16]): 4 (weed kill ratio 70% or more, less than 90%)
- O (catchweed) weedkilling efficacy grade (catchweed [17]): 4 (weed kill ratio 70% or more, less than 90%)
- P (birds-eye speedwell) weedkilling efficacy grade (birds-eye speedwell [18]): 5 (weed kill ratio 90% or more, (practically complete withering))
- b (directly sown rice) effect on crop grade (directly sown rice [19]): 4 (weed kill ratio 70% or more, less than 90%)
- c (corn) effect on crop grade (corn [20]): 1 (weed kill ratio 5% or more, less than 20%)
- d (soybean) effect on crop grade (soybean [21]): 0 (weed kill ratio 5% or less (practically no effect))
- e (wheat) effect on crop grade (wheat [22]): 0 (weed kill ratio 5% or less (practically no effect))
- f (beet) effect on crop grade (beet [23]): 4 (weed kill ratio 70% or more, less than 90%)
- g (rapeseed) effect on crop grade (rapeseed [24]): 4 (weed kill ratio 70% or more, less than 90%)
- D (crabgrass) weedkilling efficacy grade (crabgrass [25]): 4 (weed kill ratio 70% or more, less than 90%)
- E (green foxtail) weedkilling efficacy grade (green foxtail [26]): 5 (weed kill ratio 90% or more, (practically complete withering))
- F (barnyard grass) weedkilling efficacy grade (barnyard grass [27]): 4 (weed kill ratio 70% or more, less than 90%)
- G (wild oat) weedkilling efficacy grade (wild oat [28]): 3 (weed kill ratio 40% or more, less than 70%)
- H (black-grass) weedkilling efficacy grade (black-grass [29]): 4 (weed kill ratio 70% or more, less than 90%)
- I (Italian ryegrass) weedkilling efficacy grade (Italian ryegrass [30]): 4 (weed kill ratio 70% or more, less than 90%)
- J (common wind-grass) weedkilling efficacy grade (common wind-grass [31]): 5 (weed kill ratio 90% or more, (practically complete withering))
- K (Indian mallow) weedkilling efficacy grade (Indian mallow [32]): 3 (weed kill ratio 40% or more, less than 70%)
- L (redroot pigweed) weedkilling efficacy grade (redroot pigweed [33]): 0 (weed kill ratio 5% or less (practically no effect))
- N (chickweed) weedkilling efficacy grade (chickweed [34]): 2 (weed kill ratio 20% or more, less than 40%)
- O (catchweed) weedkilling efficacy grade (catchweed [35]): 4 (weed kill ratio 70% or more, less than 90%)
- P (birds-eye speedwell) weedkilling efficacy grade (birds-eye speedwell [36]): 4 (weed kill ratio 70% or more, less than 90%)
- b (directly sown rice) effect on crop grade (directly sown rice [37]): 3 (weed kill ratio 40% or more, less than 70%)
- c (corn) effect on crop grade (corn [38]): 1 (weed kill ratio 5% or more, less than 20%)
- d (soybean) effect on crop grade (soybean [39]): 0 (weed kill ratio 5% or less (practically no effect))
- e (wheat) effect on crop grade (wheat [40]): 0 (weed kill ratio 5% or less (practically no effect))
- f (beet) effect on crop grade (beet [41]): 4 (weed kill ratio 70% or more, less than 90%)
- g (rapeseed) effect on crop grade (rapeseed [42]): 4 (weed kill ratio 70% or more, less than 90%)
